The supplement of paper PMC10307832

Legend:
Test in all cases: relative viability (nuclei count vs DMSO), 5 days (fraction); higher = more cells survive
[1] = compound: CC1=CN=C(N=C1C2=CNC(=C2)C(=O)N[C@H](CO)C3=CC(=CC=C3)Cl)NC4=C(C=C(C=C4)F)Cl [VX-11e] + CC1(C)CCC(c2ccc(Cl)cc2)=C(CN2CCN(c3ccc(C(=O)NS(=O)(=O)c4ccc(N[C@H](CCN5CCOCC5)CSc5ccccc5)c(S(=O)(=O)C(F)(F)F)c4)cc3)CC2)C1 [Navitoclax] (partner 0.5 µM)
How it was run: (§1)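 Lung cancer cell lines were pin-tool dosed in 1536-well plates on the day after seeding, with either a lone drug or a fixed anchor-drug dose plus five library-drug doses (not always all listed) in √10 steps. Nuclei were counted on 4× images after 5 days. Relative viability is the ratio of treated-well to vehicle-well nuclei counts, with each value a median of duplicate plates.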

[2] = compound: CC1=CN=C(N=C1C2=CNC(=C2)C(=O)N[C@H](CO)C3=CC(=CC=C3)Cl)NC4=C(C=C(C=C4)F)Cl [VX-11e] + Nc1nc2[nH]cc(CCc3ccc(C(=O)N[C@@H](CCC(=O)O)C(=O)O)cc3)c2c(=O)[nH]1 [Pemetrexed] (partner 0.2 µM)
How it was run: as §1

[3] = compound: CC1=CN=C(N=C1C2=CNC(=C2)C(=O)N[C@H](CO)C3=CC(=CC=C3)Cl)NC4=C(C=C(C=C4)F)Cl [VX-11e] + N=C(N)NC(=N)NCCc1ccccc1 [Phenformin] (partner 250 µM)
How it was run: as §1

[4] = compound: CC1=CN=C(N=C1C2=CNC(=C2)C(=O)N[C@H](CO)C3=CC(=CC=C3)Cl)NC4=C(C=C(C=C4)F)Cl [VX-11e] + CC(=O)Nc1cccc(-n2c(=O)n(C3CC3)c(=O)c3c(Nc4ccc(I)cc4F)n(C)c(=O)c(C)c32)c1 [Trametinib] (partner 0.02 µM)
How it was run: as §1

Cell Line | relative viability ([1]; first compound 0.04 µM) | relative viability ([1]; first compound 0.1265 µM) | relative viability ([1]; first compound 0.4 µM) | relative viability ([1]; first compound 1.265 µM) | relative viability ([1]; first compound 4 µM) | relative viability ([2]; first compound 0.04 µM) | relative viability ([2]; first compound 0.1265 µM) | relative viability ([2]; first compound 0.4 µM) | relative viability ([2]; first compound 1.265 µM) | relative viability ([2]; first compound 4 µM) | relative viability ([3]; first compound 0.04 µM) | relative viability ([3]; first compound 0.1265 µM) | relative viability ([3]; first compound 0.4 µM) | relative viability ([3]; first compound 1.265 µM) | relative viability ([3]; first compound 4 µM) | relative viability ([4]; first compound 0.04 µM) | relative viability ([4]; first compound 0.1265 µM) | relative viability ([4]; first compound 0.4 µM) | relative viability ([4]; first compound 1.265 µM) | relative viability ([4]; first compound 4 µM)
NCI-H596 | 1.12 | 0.876 | 0.895 | 0.951 | 0.586 | 0.457 | 0.506 | 0.53 | 0.449 | 0.464 | 0.648 | 0.791 | 0.8 | 0.369 | 0.599 | 0.754 | 0.751 | 0.712 | 0.645 | 0.556
NCI-H2170 | 0.576 | 0.528 | 0.496 | 0.583 | 0.404 | 0.222 | 0.254 | 0.232 | 0.247 | 0.254 | 0.41 | 0.431 | 0.21 | 0.445 | 0.39 | 0.805 | 0.913 | 0.89 | 0.854 | 0.819
NCI-H3122 | 0.969 | 1.02 | 0.989 | 0.995 | 0.597 | 0.202 | 0.205 | 0.162 | 0.171 | 0.152 | 0.408 | 0.358 |  | 0.335 | 0.254 | 0.236 | 0.239 | 0.177 | 0.29 | 0.148
HCC-15 | 0.711 | 0.649 | 0.53 | 0.317 | 0.196 | 0.227 | 0.232 | 0.22 | 0.197 | 0.15 | 0.57 | 0.464 |  | 0.211 | 0.162 | 0.354 | 0.345 |  | 0.297 | 0.246
NCI-H1915 | 0.826 | 0.761 | 0.787 | 0.682 | 0.546 | 0.484 | 0.509 | 0.477 | 0.381 | 0.388 | 0.401 | 0.343 | 0.291 | 0.298 | 0.235 | 0.305 | 0.284 | 0.233 | 0.204 | 0.114
NCI-H1734 | 0.787 | 0.796 | 0.685 | 0.652 | 0.245 | 0.428 | 0.398 | 0.445 | 0.306 | 0.315 | 0.369 | 0.391 | 0.323 | 0.231 | 0.209 | 0.619 | 0.675 | 0.536 | 0.557 | 0.375
NCI-H2342 |  |  |  |  |  |  | 0.83 | 0.757 | 0.798 | 0.737 | 0.438 | 0.614 | 0.534 | 0.782 | 0.583 |  | 0.741 | 0.765 | 0.858 | 0.823
COR-L 105 | 0.591 | 0.759 | 0.55 | 0.692 | 0.284 | 1.11 | 0.905 | 0.921 | 0.93 | 0.527 | 0.489 | 0.487 | 0.391 | 0.366 | 0.227 | 0.425 | 0.459 | 0.369 | 0.423 | 0.403
RERF-LC-KJ | 0.849 | 1.1 | 0.977 | 0.946 | 0.619 | 0.522 | 0.468 | 0.42 | 0.442 | 0.417 | 0.403 | 0.427 | 0.408 | 0.372 | 0.315 | 0.888 | 0.766 | 0.897 | 0.921 | 0.667
NCI-H2228 | 0.902 | 0.73 | 1.08 | 0.477 | 0.162 | 0.337 | 0.371 | 0.363 | 0.311 | 0.183 | 0.352 | 0.376 |  | 0.151 | 0.135 | 0.518 | 0.466 | 0.0868 | 0.273 | 0.128
NCI-H1944 | 0.947 | 1.03 | 0.951 | 0.944 | 0.504 | 0.602 | 0.77 | 0.382 | 0.505 | 0.374 | 0.194 | 0.193 |  | 0.218 | 0.168 | 0.468 | 0.441 | 0.343 | 0.347 | 0.282
NCI-H1648 |  |  |  |  |  |  | 0.891 | 0.866 | 0.596 | 0.674 |  |  |  |  |  |  | 0.406 | 0.5 | 0.376 | 0.291
NCI-H647 | 1.08 | 1.09 | 0.904 | 0.663 | 0.522 | 0.187 | 0.198 | 0.177 | 0.137 | 0.123 | 0.677 | 0.442 | 0.249 | 0.266 | 0.196 | 0.51 | 0.358 | 0.211 | 0.163 | 0.217
A549 | 1.22 | 1.11 | 0.984 | 0.257 | 0.111 |  |  |  |  |  | 0.151 | 0.155 | 0.0307 | 0.279 | 0.0557 |  |  |  |  | 
LC-2-ad | 0.463 | 0.375 | 0.362 | 0.372 | 0.248 | 0.277 | 0.247 | 0.285 | 0.239 | 0.243 | 0.525 | 0.461 | 0.395 | 0.372 | 0.467 | 0.998 | 0.856 | 0.881 | 0.755 | 0.537
EMC-BAC-2 | 1.22 | 1.11 | 0.994 | 0.927 | 0.833 | 0.473 | 0.423 | 0.631 | 0.511 | 0.549 | 0.518 | 0.481 | 0.633 | 0.545 | 0.51 | 0.937 | 0.791 | 0.518 | 0.538 | 0.402
EBC-1 | 0.362 | 0.474 | 0.325 | 0.271 | 0.168 |  |  |  |  |  |  |  |  |  |  |  |  |  |  | 
SW 900 |  |  |  |  |  | 0.49 | 0.452 |  | 0.36 | 0.294 | 0.504 | 0.456 | 0.216 | 0.213 | 0.318 | 0.826 | 0.761 |  | 0.483 | 0.605
